For the data set, the system named is RAW 264.7 cells. Description: Cytotoxicity against macrophage, alamar blue. To be noted: CPT 0.01 to 2.5 μg/ml, 48 hr; PCSNs stored in 55% FBS 1 hr. In kind it is cell-based. Here is the method:
In detail, CPT-loaded HER2-PCSNs were prepared and stored in a high concentration of serum protein environment of 55% FBS for 1 hr. Thereafter, the stored HER2-PCSNs were collected and washed, and then treated to RAW 264.7 cells at a CPT concentration of 0.01 μg/ml, 0.1 μg/ml, 0.25 μg/ml, 0.5 μg/ml, 1.0 μg/ml, or 2.5 μg/ml, followed by incubation for 48 hr. After completing incubation, cell viability was examined using an alamar blue dye. As a control for comparison of the cell killing effect, RAW 264.7 cells were treated with free CPT which was not loaded in nanoparticles, and cell viability thereof was examined.

From patent publication US11844844B2, “Fusion protein comprising glutathione-s-transferase and protein having binding affinity target cell or target protein, and use thereof” (UNIST(ULSAN NATIONAL INSTITUTE OF SCIENCE AND TECHNOLOGY), priority 2017, dated 2023) come the findings set out here.

SMILES strings stand for the structures.

For the molecule `CC[C@@]1(O)C(=O)OCc2c1cc1n(c2=O)Cc2cc3ccccc3nc2-1` [free CPT, camptothecin], the “cell killing effect on macrophages (cell viability)” value is on record as “exhibited the cell killing effect on RAW 264.7 cells with increasing treatment concentrations”.
